Data set [1] deals with T1, His6-TRIM24 (PHD-BRD) (Homo sapiens, UniProt O15164).
T1 sequence (O15164 825-1007): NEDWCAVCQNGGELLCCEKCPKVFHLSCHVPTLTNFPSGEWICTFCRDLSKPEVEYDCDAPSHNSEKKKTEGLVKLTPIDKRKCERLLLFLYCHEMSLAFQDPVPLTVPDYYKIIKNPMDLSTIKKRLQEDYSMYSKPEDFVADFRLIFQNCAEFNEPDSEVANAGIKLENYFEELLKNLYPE
The experiment in a line: AlphaScreen competition assay, displacement of biotinylated H3(1–27)K18Ac (B2). Further details: N825–E1007; made in house; host or cells: Escherichia coli BL21-Gold (DE3), plasmid pNIC28-Bsa4. To be noted: inhibition of TRIM24-H3K18Ac (B2) binding; mean of triplicate ± SEM. For orientation: In Alpha technology, singlet oxygen from a donor bead excites a nearby acceptor bead.

Data set [2] has as its target T1, His6-TRIM24 (PHD-BRD). Description: AlphaScreen competition assay, displacement of biotinylated H3(1–27)K9Me3K18Ac (B3). It is filed as binding. Further details: N825–E1007; made in house; host or cells: Escherichia coli BL21-Gold (DE3), plasmid pNIC28-Bsa4. The settings on record: for IC50: AlphaScreen® IC50 (TRIM24 PHD-BRD), inhibition of TRIM24-H3K9Me3K18Ac (B3) binding, mean of triplicate ± SEM; for AlphaScreen signal at plateau relative to baseline: competitor H3(1–27)K9Me3K18Ac.

The target in data set [3] is T1, His6-TRIM24 (PHD-BRD).
Data set [4] concerns BT-474 (ER+). Description: MTT assay, BT-474. In kind it is cell-based, human. The settings on record: ER+ breast cancer cell line, up to 10 μM, 16 h. The procedure: (§1) (ER+) and CAL-51 (triple negative), treated with the indicated compound (10 µM). The data are represented as the mean of means for two biological repeats (n = 2), each consisting of three technical repeats. Error bars indicate the standard error of the mean. […]
(§2) due to issues with procurement at the time of running the assay. […]
(§3) indicated compound (10 µM). Compounds were added after seeding on day 0 only and counting was carried out each day for 6 days. Data are represented as the mean of triplicate data from one biological repeat. Error bars indicate the standard deviation. […]
(§4) supplemented with 10% FBS (Merck Life Sciences U.K. Ltd., F7524). Unless otherwise stated, cells were cultured in a humidified incubator at 37 °C and 5% CO2. Cell lines were passaged by trypsinisation (Trypsin-EDTA solution 1×, Merck Life Sciences U.K. Ltd., T3924), and by diluting the cells into a culture flask at the desired density in complete media. Cell lines were […]
(§5) Cells were seeded and allowed to adhere for 6 h in plastic clear-bottomed 96-well plates in a total volume of 200 μL/well complete medium.
A general note: Formazan colour is commonly taken as a measure of viable cells.

The test system of data set [5] is CAL-51 (triple negative). Description: MTT assay, CAL-51. It is filed as cell-based, human. The settings on record: triple-negative breast cancer cell line, up to 10 μM, 16 h. The method, then: as §1, §2, §3, §4, §5
For data set [6], the system named is MCF-7 cells. The experiment in a line: Proliferation and clonogenic assays, MCF-7. In kind it is cell-based, human. To be noted: MCF-7, 10 µM. The procedure:
as §1, §2, §3
Error bars indicate the standard deviation.
(§6) (1 picture or pasted object on this page, not shown here) […]
as §4, §5

Data set [7] concerns CAL-51 cells. The experiment in a line: Proliferation and clonogenic assays, CAL-51. In kind it is cell-based, human. To be noted: CAL-51, 10 µM. The procedure:
as §6, §4, §5

The target in data set [8] is His6-TRIM24 (PHD-BRD) (UniProt O15164). Description: other; AlphaScreen, competitor biotinylated H3K9Me3K18Ac (B3).
Data set [9] deals with TRIM33α. Further details: method as in PMID 36098557, PMID 26061247. The settings on record: cited from earlier work.
The test system of data set [10] is TRIM33β. Further details: method as in PMID 36098557, PMID 26061247. The settings on record: cited from earlier work.
Data set [11] deals with TRIM24. To be noted: ref Gechijian et al. 2018; cited from earlier work.
Data set [12] has as its target BRPF1. The settings on record: ref Gechijian et al. 2018; cited from earlier work.
Data set [13] has as its target T2, TRIM24 (PHD‐BRD) (Homo sapiens, UniProt O15164).
T2 sequence (O15164 826-1004 limits assumed): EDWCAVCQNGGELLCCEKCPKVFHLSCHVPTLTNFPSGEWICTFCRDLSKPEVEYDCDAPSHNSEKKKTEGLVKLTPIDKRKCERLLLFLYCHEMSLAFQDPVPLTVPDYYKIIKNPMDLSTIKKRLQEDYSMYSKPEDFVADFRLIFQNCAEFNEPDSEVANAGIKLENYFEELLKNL
Description: BROMOscan assay, TRIM24. In kind it is binding. The text has this:
The Hill Slope was set to −1.

Data set [14] addresses T3, BRPF1 (BRD) (Homo sapiens, UniProt P55201).
T3 sequence (P55201 628-732 limits assumed): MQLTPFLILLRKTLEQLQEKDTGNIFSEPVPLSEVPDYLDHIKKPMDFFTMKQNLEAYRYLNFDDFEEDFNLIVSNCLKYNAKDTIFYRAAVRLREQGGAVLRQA
The experiment in a line: BROMOscan assay, BRPF1. To be noted: mean of duplicate data ± 95% confidence interval.

Data set [15] deals with T1, His6-TRIM24 (PHD-BRD). The experiment in a line: Surface plasmon resonance (SPR). Further details: N825–E1007; made in house; host or cells: Escherichia coli BL21-Gold (DE3), plasmid pNIC28-Bsa4. It is filed as binding. The settings on record: 15 °C; for Kd: mean of means of triplicate ± SEM. Background: SPR reads the build-up and loss of mass on a sensor chip optically.

Data set [16] addresses T4, BRPF1 (BRD).
T4 chain: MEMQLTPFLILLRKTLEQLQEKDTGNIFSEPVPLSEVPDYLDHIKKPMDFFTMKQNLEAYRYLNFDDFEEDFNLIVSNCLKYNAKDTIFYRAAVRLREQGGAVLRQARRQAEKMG
To be noted: Synthetic nine-residue H3(1-9) peptide. Residue 9 (K10 in precursor numbering) is unnatural amino acid 42, a lysine analogue whose side-chain nitrogen is part of an isoindoline ring (parent written as Lys). C-terminal group is not stated in the text. Limits are inferred from H3(1-8) peptide 46 plus amino acid 42. limits by convention from the usual BRPF1 bromodomain structural construct (covers B); modification not given.

Data set [17] addresses T4, BRPF1 (BRD). Description: BROMOscan. To be noted: Synthetic nine-residue H3(1-9) peptide. Residue 9 (K10 in precursor numbering) is unnatural amino acid 42, a lysine analogue whose side-chain nitrogen is part of an isoindoline ring (parent written as Lys). C-terminal group is not stated in the text. Limits are inferred from H3(1-8) peptide 46 plus amino acid 42. limits by convention from the usual BRPF1 bromodomain structural construct (covers B); modification not given.

Where “and” joins values, the source holds several entries; their conditions need not be identical. Identical values can stand only once. Like-named read-outs stand apart in the source and are kept apart here.

Usually IC50 stands for the point on the concentration scale where inhibition reaches its midpoint. In the case of `CCCOc1cccc(Oc2cc3c(cc2NS(=O)(=O)c2cccc(C(=O)NCCOCCOCCNC(C)=O)c2)n(C)c(=O)n3C)c1` [compound 32], the IC50 is 105 ± 5.3 nM in data set [1] and 484 nM in [2]. Moreover, the “AlphaScreen signal at plateau relative to baseline” value in data set [2] is given as “did not decrease to baseline”.
Take `C[C@H](N)C(=O)N[C@@H](CCCNC(=N)N)C(=O)N[C@H](C(=O)N[C@@H](CCCC[N+](C)(C)C)C(=O)N[C@@H](CCC(N)=O)C(=O)N[C@H](C(=O)N[C@@H](C)C(=O)N[C@@H](CCCNC(=N)N)C(=O)N[C@@H](CCCCN)C(=O)N[C@@H](CO)C(=O)N[C@H](C(=O)NCC(=O)NCC(=O)N[C@@H](CCCCN)C(=O)N[C@@H](C)C(=O)O)[C@@H](C)O)[C@@H](C)O)[C@@H](C)O` [reference compound]: the IC50 in data set [3] (AlphaScreen® IC50, inhibition of TRIM24-H3K9Me3 (B1) binding by PDCs and controls, mean of triplicate ± SEM) was > 400000 nM; in data set [3] (AlphaScreen® IC50, inhibition of TRIM24-H3K9Me3 (B1) binding, mean of triplicate data ± standard error of the mean), > 400000 nM; in data set [1], > 400000 nM; in data set [2] it was > 400000 nM.
Regarding `CCCOc1cccc(Oc2cc3c(cc2NS(=O)(=O)c2cccc(C(=O)NCCOCCOCCOCCNC(C)=O)c2)n(C)c(=O)n3C)c1` [compound 33], the “cytotoxic effects (MTT)” value in data set [4] and in data set [5] was “did not show cytotoxic effects” throughout. Besides, the “effect on breast cancer cell growth” value in data set [6] and in data set [7] was “neither compound significantly affected” throughout. The IC50 in [1] came out at 71 ± 4.1 nM; in [2], 348 nM. The “AlphaScreen signal at plateau relative to baseline” value in data set [2] is given as “did not decrease to baseline”.
H3(1-27)K9Me3K18Ac: the IC50 in data set [8] is 242 nM.
As for `CCCOc1cc(OCCCCN(C)C)cc(Oc2cc3c(cc2NS(=O)(=O)c2ccc(OC)c(OC)c2)n(C)c(=O)n3C)c1` [IACS9571], the “binding to TRIM33α” value in [9] is reported as “does not bind”. Also, in data set [10], the “binding to TRIM33β” value is reported as “does not bind”.
`CCCOc1cccc(Oc2cc3c(cc2NS(=O)(=O)c2cccc(C(=O)O)c2)n(C)c(=O)n3C)c1` [compound 28] came in with an IC50 in [1] of 388 ± 46.6 nM. Besides, in [2], the IC50 was > 100000 nM and the “AlphaScreen signal at plateau relative to baseline” value was “did not decrease to baseline”.
The Kd is the constant that tells how readily two partners part at equilibrium. On to `CCCOc1cccc(Oc2cc3c(cc2NS(=O)(=O)c2cccc(C(=O)NCCOCCOCCOCC(=O)N[C@H](C(=O)N4C[C@H](O)C[C@H]4C(=O)NCc4ccc(-c5scnc5C)cc4)C(C)(C)C)c2)n(C)c(=O)n3C)c1` [dTRIM24], for which the Kd in data set [11] is 42 nM; in data set [12] it was 52 nM.
The koff is the rate constant with which the complex falls apart. Low readings indicate slow dissociation, high ones fast dissociation. In general, kon refers to the second-order rate constant of association. Read a high kon as fast association. Regarding `CCCOc1cccc(Oc2cc3c(cc2NS(=O)(=O)c2cccc(C(=O)NCCOCCOCCOCCOCCNC(C)=O)c2)n(C)c(=O)n3C)c1` [compound 34], the Kd is 2 ± 0.98 nM in data set [13] (BROMOscan TRIM24 PHD-BRD Kd, mean of duplicate data ± 95% confidence interval); 2.5 nM and 1.5 nM in data set [13] (individual duplicate curves, read-out: BROMOscan TRIM24 Kd, single dose-response curve); 2.15 ± 0.49 nM in [14]; 11 ± 2.3 nM in data set [15] (binding saturation, read-out: SPR Kd – equilibrium); 10 ± 7 nM in data set [15] (multi-cycle kinetics, read-out: SPR Kd – kinetic). For the same molecule, the IC50 in [1] amounted to 94.2 ± 4.6 nM; in [2], 275 nM. Also, the “AlphaScreen signal at plateau relative to baseline” value in data set [2] is “did not decrease to baseline”. The molecule also showed a koff in [15] (SPR) of 0.061 s⁻¹. The molecule also returned a kon in data set [15] (SPR) of 6.1e+06 M⁻¹ s⁻¹.
In the case of ARTKQTARK [TRIM24 PHD-binding peptide (56)], the Kd in data set [16] and in data set [17] was > 10000 nM in each case.

The values above are taken from paper PMC12731528, “High‐Affinity Peptide‐Drug Conjugate Ligands for the TRIM24 PHD and Bromodomain” (Chemistry (Weinheim an Der Bergstrasse, Germany), 2025).
